Test results taken from US10004732B2 (Novartis AG, priority 2014, dated 2018).

Columns and labels:
[1] = biological target: PI 4-kinase beta (Homo sapiens, UniProt Q9UBF8); experiment: Kinase Glo Luminescent Kinase Assay (Kglo), assay D; format: biochemical; settings: read-out: Assay D PI4Kβ IC50
Protocol: Kinase Glo Luminescent Kinase Assay (Kglo) for Pb 3-Kinase Alpha (A), Pb 3-Kinase Beta (B), Vps34 (C), Pb 4-Kinase Beta (D)
The Kinase Glo Luminescent Kinase Assay (Promega, Madison/Wis., USA) is a homogeneous HTS method of measuring kinase activity by quantifying the amount of ATP remaining in solution following a kinase reaction.
L-α-phosphatidylinositol (PI), provided as 10 mg/ml solution in methanol, was transferred into a glass tube and dried under a nitrogen beam. It was then resuspended in 3% OctylGlucoside (1-0-n-octyl-beta-D-glucopyranoside) by vortexing and stored at 4° C. 5 μL of a mix of PI/OctylGlucoside with the PI 3-kinase alpha and PI 3-kinase beta subtypes, or Vps34 or PI 4-kinase beta were added. Kinase reactions were started by the addition of 5 μl of an ATP-mix containing in a final volume 10 μL 10 mM TRIS-HCl pH 7.5, 3 mM MgCl2, 50 mM NaCl, 0.05% CHAPS, 1 mM DTT and 1 μM ATP at room temperature.
All fits were performed with the program XLfit4 (ID Business Solutions, Guildford, UK).

[2] = biological target: T1, PI 3-kinase alpha (Homo sapiens, UniProt P42336); experiment: Kinase Glo Luminescent Kinase Assay (Kglo), assay A; format: biochemical; settings: read-out: Assay A PI3Kα IC50
[3] = biological target: T2, PI 3-kinase gamma (Homo sapiens, UniProt P48736); experiment: TR-FRET Adapta assay, assay E; format: biochemical; settings: read-out: Assay E PI3Kγ IC50
[4] = biological target: T3, PI 3-kinase beta (Homo sapiens, UniProt P42338); experiment: Cellular assay I1, p-Akt (S473) in Rat-1 cells, Surefire format; format: cell-based; settings: non-asterisked data: version I1 (Surefire format), Rat-1 cells; read-out: Assay I PI3Kβ IC50
Target sequence in this assay (P42338 whole entry): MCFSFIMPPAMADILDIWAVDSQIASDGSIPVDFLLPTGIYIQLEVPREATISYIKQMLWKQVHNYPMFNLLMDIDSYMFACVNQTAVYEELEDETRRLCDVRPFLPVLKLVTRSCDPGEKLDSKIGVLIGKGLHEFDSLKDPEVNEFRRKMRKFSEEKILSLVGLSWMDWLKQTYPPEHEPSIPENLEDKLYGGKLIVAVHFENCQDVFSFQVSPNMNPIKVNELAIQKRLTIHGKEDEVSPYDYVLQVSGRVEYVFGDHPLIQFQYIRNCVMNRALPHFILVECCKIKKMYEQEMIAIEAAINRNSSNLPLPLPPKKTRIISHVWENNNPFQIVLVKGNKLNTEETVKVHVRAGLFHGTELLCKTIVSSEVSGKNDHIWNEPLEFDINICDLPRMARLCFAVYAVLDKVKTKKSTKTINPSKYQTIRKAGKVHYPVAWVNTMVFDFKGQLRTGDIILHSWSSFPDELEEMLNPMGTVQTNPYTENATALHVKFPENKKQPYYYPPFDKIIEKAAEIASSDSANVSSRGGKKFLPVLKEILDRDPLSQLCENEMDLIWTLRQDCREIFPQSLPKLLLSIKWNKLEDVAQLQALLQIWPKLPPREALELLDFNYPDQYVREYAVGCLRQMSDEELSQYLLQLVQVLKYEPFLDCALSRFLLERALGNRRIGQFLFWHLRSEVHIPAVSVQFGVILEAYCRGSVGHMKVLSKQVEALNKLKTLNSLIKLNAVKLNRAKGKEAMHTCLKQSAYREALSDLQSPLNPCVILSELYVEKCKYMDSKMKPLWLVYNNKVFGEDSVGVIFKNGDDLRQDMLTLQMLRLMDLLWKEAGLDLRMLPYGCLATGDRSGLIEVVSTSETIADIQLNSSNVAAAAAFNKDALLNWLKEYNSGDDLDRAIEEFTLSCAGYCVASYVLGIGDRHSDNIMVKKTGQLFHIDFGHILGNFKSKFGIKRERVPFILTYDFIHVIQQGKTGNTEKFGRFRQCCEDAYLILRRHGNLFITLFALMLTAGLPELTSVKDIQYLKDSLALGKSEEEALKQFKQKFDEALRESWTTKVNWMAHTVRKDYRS
Target sequence in this assay (Q63787 whole entry partner): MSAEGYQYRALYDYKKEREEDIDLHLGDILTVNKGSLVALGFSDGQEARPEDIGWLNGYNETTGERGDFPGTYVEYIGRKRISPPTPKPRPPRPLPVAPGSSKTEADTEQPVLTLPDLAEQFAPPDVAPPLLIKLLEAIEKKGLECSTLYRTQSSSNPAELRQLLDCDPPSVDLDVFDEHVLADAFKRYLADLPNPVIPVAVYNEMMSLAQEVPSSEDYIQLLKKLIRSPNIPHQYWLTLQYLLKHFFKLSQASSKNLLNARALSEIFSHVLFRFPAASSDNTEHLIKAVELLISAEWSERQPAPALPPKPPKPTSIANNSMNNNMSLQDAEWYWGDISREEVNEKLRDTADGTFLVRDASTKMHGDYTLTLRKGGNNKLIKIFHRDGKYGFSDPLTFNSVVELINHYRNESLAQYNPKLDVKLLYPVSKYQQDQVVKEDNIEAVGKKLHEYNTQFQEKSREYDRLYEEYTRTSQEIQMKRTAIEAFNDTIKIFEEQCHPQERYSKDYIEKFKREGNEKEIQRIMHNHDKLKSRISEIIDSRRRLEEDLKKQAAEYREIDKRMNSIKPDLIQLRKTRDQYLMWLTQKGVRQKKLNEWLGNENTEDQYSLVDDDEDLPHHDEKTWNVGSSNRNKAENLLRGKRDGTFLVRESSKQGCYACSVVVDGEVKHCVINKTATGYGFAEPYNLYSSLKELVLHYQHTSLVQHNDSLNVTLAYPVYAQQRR
Description: Cellular Assays for PI 3-Kinase Alpha (H1), Beta (I1) and Delta (J1): Surefire Format
AlphaScreen (Amplified Luminescent Proximity Homogeneous Assay, ALPHA, Perkin Elmer) is a non-radioactive bead-based proximity assay technology to study biomolecular interactions in a homogenous microtiter plate format. The brand name SureFire denotes AlphaScreen assays that are adapted to quantify the phosphorylation of endogenous cellular proteins in cell lysates, by using matched antibody pairs, which consist of an anti-phospho-kinase and an anti-kinase antibody. The assay allows characterization of kinase signaling in cells as well as measurement of kinase inhibitor effects.
Using Rat-1 cells stably expressing myr-HA-tagged versions of the human PI3Kdelta, PI3Kalpha, or PI3Kbeta p110 catalytic subunit isoforms, the assay was developed as a two-plate protocol in a 384-well format.
For compound testing, the cells were seeded at a density of 4000 (Rat-1_PI3Kdelta), 7500 (Rat-1_PI3Kalpha), or 6200 (Rat-1_PI3Kbeta) cells in 20 μl complete growth medium into cell culture treated 384-well plates and were grown at 37° C./5% CO2/90% humidity for 24 h. Shortly before compound transfer, the complete medium was removed, 30 μl assay buffer (DMEM high glucose, 1×MEM NEAA, 10 mM HEPES, 2 mM L-glutamine, 0.1% (w/v) BSA) was added and 10 μl of the compound predilutions were transferred to the cells.

[5] = biological target: T1, PI 3-kinase alpha; experiment: Cellular assay H1, p-Akt (S473) in Rat-1 cells, Surefire format; format: cell-based; settings: non-asterisked data: version H1 (Surefire format), Rat-1 cells; read-out: Assay H PI3Kα IC50
[6] = biological target: Vps34 (Homo sapiens, UniProt Q8NEB9); experiment: Kinase Glo Luminescent Kinase Assay (Kglo), assay C; format: biochemical; settings: read-out: Assay C VPS34 IC50
[7] = biological target: T4, PI 3-kinase delta (Homo sapiens, UniProt O00329); experiment: Cellular assay J1, p-Akt (S473) in Rat-1 cells, Surefire format; format: cell-based; settings: non-asterisked data: version J1 (Surefire format), Rat-1 cells; read-out: Assay J PI3Kδ IC50
Target sequence in this assay (O00329 whole entry): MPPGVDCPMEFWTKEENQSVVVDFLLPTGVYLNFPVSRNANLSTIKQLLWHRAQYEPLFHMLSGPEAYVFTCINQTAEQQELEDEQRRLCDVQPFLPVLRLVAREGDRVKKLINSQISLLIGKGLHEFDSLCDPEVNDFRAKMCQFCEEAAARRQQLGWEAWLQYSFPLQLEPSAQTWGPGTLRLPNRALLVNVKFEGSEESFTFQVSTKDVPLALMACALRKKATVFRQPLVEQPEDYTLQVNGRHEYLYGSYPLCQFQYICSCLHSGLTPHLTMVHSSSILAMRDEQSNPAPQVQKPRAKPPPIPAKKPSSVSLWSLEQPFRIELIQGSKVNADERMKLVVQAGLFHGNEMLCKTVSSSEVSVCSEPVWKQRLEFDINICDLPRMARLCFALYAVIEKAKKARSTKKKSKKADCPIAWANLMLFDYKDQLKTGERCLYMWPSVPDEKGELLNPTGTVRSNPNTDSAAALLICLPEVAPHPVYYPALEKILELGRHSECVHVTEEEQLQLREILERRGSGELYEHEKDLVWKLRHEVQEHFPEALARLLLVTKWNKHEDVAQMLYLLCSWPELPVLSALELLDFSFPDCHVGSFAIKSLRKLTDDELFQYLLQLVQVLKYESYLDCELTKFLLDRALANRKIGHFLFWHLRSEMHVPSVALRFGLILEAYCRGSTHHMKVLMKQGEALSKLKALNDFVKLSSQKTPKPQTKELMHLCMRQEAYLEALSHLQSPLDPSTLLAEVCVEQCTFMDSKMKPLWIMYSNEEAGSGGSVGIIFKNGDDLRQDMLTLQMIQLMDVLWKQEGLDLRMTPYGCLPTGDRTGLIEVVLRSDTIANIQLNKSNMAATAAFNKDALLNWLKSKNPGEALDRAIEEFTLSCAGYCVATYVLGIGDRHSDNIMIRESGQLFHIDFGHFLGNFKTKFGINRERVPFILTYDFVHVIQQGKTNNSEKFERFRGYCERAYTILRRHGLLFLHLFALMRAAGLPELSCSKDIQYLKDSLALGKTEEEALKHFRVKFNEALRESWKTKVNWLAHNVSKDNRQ
Target sequence in this assay (Q63787 whole entry partner): as the sequence (Q63787 whole entry partner) above

[8] = biological target: T4, PI 3-kinase delta; experiment: TR-FRET Adapta assay, assay F; settings: read-out: Assay F PI3Kδ IC50
Target sequence in this assay (O00329 whole entry): as the sequence (O00329 whole entry) above
Target sequence in this assay (P27986 461-568 partner): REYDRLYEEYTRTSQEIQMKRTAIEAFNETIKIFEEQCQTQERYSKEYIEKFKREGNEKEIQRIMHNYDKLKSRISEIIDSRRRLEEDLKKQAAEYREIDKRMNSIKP

[9] = biological target: T2, PI 3-kinase gamma; experiment: Cellular U937 AKT assay K1 (MSD); format: cell-based; settings: U937 cells, K1 format; read-out: Assay K1 PI3Kγ IC50
[10] = biological target: T3, PI 3-kinase beta; experiment: Kinase Glo Luminescent Kinase Assay (Kglo), assay B; format: biochemical; settings: read-out: Assay B PI3Kβ IC50
Target sequence in this assay (P42338 whole entry): as the sequence (P42338 whole entry) above
Target sequence in this assay (P27986 461-568 partner): as the sequence (P27986 461-568 partner) above

[11] = Microsomal clearance assay (M); settings: intrinsic clearance in rat liver microsomes
Protocol: The experiments were performed in 96-well glass plates at 37° C. on an automated Tecan EVO platform. Test compounds at a concentration of 10 mM in pure DMSO were diluted 1:1000 in water to 10 μM. […] Reactions were initiated by the addition of 150 μL of a cofactor solution containing 2 mM NADPH.

[12] = biological target: mTOR (Homo sapiens, UniProt P42345); experiment: Lanthascreen kinase binding assay, assay G; settings: read-out: Assay G mTOR IC50
Protocol: Lanthascreen™ Kinase Binding Assay for mTOR (G)
Binding of an inhibitor to the kinase competes for binding with the tracer, resulting in a loss of FRET.
50 nL of compound dilutions were dispensed onto white 384-well small volume polystyrene plate.

[13] = tested on: IL-8-induced neutrophil shape change in human whole blood; experiment: Whole blood neutrophil shape change assay (L); format: cell-based; settings: Homo sapiens, Neutrophil, IL-8, human whole blood, read-out: Assay L WBSC IC50

T2 sequence (P48736 whole entry): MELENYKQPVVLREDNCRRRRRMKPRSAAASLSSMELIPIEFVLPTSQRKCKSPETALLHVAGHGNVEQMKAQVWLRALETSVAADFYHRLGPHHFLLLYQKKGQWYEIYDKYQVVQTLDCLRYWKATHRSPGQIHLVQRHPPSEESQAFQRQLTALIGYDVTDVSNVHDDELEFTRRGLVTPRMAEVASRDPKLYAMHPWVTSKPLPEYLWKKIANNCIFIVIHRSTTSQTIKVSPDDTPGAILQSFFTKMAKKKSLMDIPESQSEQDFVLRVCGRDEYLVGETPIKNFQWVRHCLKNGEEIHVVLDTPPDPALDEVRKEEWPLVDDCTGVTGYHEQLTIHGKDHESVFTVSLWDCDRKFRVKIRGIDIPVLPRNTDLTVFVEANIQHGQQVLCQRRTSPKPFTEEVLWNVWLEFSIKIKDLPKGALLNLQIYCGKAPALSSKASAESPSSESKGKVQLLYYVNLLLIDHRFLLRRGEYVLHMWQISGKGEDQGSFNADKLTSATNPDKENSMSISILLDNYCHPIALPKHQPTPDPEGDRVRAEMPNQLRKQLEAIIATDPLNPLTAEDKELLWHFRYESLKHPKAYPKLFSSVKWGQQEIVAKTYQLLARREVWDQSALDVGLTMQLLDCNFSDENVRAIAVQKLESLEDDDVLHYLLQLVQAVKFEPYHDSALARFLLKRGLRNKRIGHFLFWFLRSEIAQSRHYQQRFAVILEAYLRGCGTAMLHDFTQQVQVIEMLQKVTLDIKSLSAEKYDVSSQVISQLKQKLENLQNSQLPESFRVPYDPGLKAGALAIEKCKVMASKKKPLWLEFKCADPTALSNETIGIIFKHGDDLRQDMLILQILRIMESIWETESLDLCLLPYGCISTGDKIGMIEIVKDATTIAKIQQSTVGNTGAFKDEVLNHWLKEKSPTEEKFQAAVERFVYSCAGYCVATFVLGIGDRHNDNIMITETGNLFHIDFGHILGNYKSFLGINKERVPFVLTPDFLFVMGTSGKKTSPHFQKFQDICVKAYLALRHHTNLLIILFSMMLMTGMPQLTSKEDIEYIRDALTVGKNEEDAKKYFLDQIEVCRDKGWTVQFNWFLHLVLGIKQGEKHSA
PI 4-kinase beta, sequence (Q9UBF8 whole entry): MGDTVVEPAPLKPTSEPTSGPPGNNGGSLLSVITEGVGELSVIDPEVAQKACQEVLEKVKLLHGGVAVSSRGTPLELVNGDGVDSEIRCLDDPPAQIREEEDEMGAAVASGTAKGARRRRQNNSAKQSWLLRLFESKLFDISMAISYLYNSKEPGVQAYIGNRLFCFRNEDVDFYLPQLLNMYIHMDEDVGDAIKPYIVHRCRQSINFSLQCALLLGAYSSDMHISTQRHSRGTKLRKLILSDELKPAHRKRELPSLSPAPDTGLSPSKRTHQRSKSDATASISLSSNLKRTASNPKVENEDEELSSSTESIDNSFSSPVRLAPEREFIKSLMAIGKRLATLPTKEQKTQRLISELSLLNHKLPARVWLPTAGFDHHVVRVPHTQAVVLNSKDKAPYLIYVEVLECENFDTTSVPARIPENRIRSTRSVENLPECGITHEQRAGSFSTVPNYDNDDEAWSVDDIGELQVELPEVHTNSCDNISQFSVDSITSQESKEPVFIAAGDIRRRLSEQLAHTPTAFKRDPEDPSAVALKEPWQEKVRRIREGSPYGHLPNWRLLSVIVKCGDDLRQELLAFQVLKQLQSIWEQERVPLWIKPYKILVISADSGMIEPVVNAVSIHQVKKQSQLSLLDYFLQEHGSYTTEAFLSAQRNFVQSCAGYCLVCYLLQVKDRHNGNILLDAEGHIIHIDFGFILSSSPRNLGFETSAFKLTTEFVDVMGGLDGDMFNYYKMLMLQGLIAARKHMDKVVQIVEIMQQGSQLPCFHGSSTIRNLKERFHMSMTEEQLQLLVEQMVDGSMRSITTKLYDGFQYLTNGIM

Row | Compound | IC50 [1] | IC50 [2] | IC50 [3] | IC50 [4] | IC50 [5] | IC50 [6] | IC50 [7] | IC50 [8] | IC50 [9] | IC50 [10] | Assay M RLM CI(int) [11] | IC50 [12] | IC50 [13]
1 | Cc1ccc(S(=O)(=O)N[C@H]2CC[C@H](O)CC2)cc1-c1cnc(N)c(-c2nc(C3CC3)no2)n1 [Example 24, Trans-3-[5-Amino-6-(3-cyclopropyl-[1,2,4]oxadiazol-5-yl)-pyrazin-2-yl]-N-(4-hydroxy-cyclohexyl)-4-methyl-benzene sulfonamide] | > 9100 nM | 200 nM | 7 nM | 6250 nM | 1060 nM | > 9100 nM | 660 nM | 60 nM | 53 nM | 6060 nM | 43 µL/min/mg | 7910 nM | 561 nM
2 | Cc1ncn(-c2nc(-c3cc(S(=O)(=O)NCCC(C)(C)O)ccc3C)cnc2N)n1 [Example 65, 3-(5-Amino-6-(3-methyl-1H-1,2,4-triazol-1-yl)pyrazin-2-yl)-N-(3-hydroxy-3-methylbutyl)-4-methylbenzenesulfonamide] | > 9100 nM | 440 nM | 22 nM | > 10000 nM | 1450 nM | > 9100 nM | 1440 nM | 240 nM | 155 nM | 4030 nM | 87 µL/min/mg | > 9100 nM | 802 nM
3 | Cc1ccc(S(=O)(=O)NCCC(C)(C)O)cc1-c1cnc(N)c(-n2cncn2)n1 [Example 64, 3-(5-Amino-6-(1H-1,2,4-triazol-1-yl)pyrazin-2-yl)-N-(3-hydroxy-3-methylbutyl)-4-methylbenzenesulfonamide] | 6610 nM | 370 nM | 46 nM | 4370 nM | 1240 nM | 8490 nM | 1190 nM | 250 nM | 189 nM | 3850 nM | 61 µL/min/mg | > 9100 nM | 543 nM
4 | Cc1cc(-c2nc(-c3cc(S(=O)(=O)N[C@H]4CC[C@H](O)CC4)ccc3C)cnc2N)on1 [Example 4, Trans-3-[5-Amino-6-(3-methyl-isoxazol-5-yl)-pyrazin-2-yl]-N-(4-hydroxy-cyclohexyl)-4-methyl-benzenesulfonamide] | 3700 nM | 510 nM | 26 nM | 4460 nM | 2550 nM | > 9100 nM | 910 nM | 300 nM | 38 nM | 3240 nM | 27 µL/min/mg | 6510 nM | 675 nM
5 | Cc1ccc(S(=O)(=O)NCC2(CO)COC2)cc1-c1cnc(N)c(-n2cncn2)n1 [Example 35, 3-(5-Amino-6-[1,2,4]triazol-1-yl-pyrazin-2-yl)-N-(3-hydroxymethyl-oxetan-3-ylmethyl)-4-methyl-benzenesulfonamide] | 3700 nM | 630 nM | 25 nM | > 10000 nM | > 10000 nM | > 10000 nM | > 10000 nM | 990 nM | 418 nM | 1900 nM | 25 µL/min/mg | 5600 nM | 669 nM
